From patent publication US20190284136A1, “INDOLINE DERIVATIVES” (ViiV HEALTHCARE UK LIMITED, priority 2016, published 2019)

system: HIV; test: Table 1 IC50 of the examples (assay method not given; patent concerns inhibiting HIV replication); format: cell-based; details: not given

SMILES | IC50
COc1c(F)cccc1C(=O)N1CCc2c1cc(C)c([C@H](OC(C)(C)C)C(=O)O)c2-c1cc(F)c2c(c1C)CCCO2 (atropisomer, axis not shown) [Example 45, (S)-2-(tert-Butoxy)-2-((R)-1-(3-fluoro-2-methoxybenzoyl)-4-(8-fluoro-5-methylchroman-6-yl)-6-methylindolin-5-yl)acetic acid] | 1 nM

same assay, conditions: Human immunodeficiency virus 1

SMILES | IC50
Cc1cc2c(c(-c3cc(F)c4c(c3C)CCCO4)c1[C@H](OC(C)(C)C)C(=O)O)CCN2C(=O)c1ccncc1F (atropisomer, axis not shown) [Example 91, (S)-2-(tert-Butoxy)-2-((R)-4-(8-fluoro-5-methylchroman-6-yl)-1-(3-fluoroisonicotinoyl)-6-methylindolin-5-yl)acetic acid] | 156 nM
COc1cccc(C(=O)N2CCc3c2cc(C)c([C@H](OC(C)(C)C)C(=O)O)c3-c2cc(F)c3c(c2C)CCCO3)c1C (atropisomer, axis not shown) [Example 67, (S)-2-(tert-Butoxy)-2-((R)-4-(8-fluoro-5-methylchroman-6-yl)-1-(3-methoxy-2-methylbenzoyl)-6-methylindolin-5-yl)acetic acid] | 5 nM
Cc1ccc(C(=O)N2CCc3c2cc(C)c([C@H](OC(C)(C)C)C(=O)O)c3-c2cc(F)c3c(c2C)CCCO3)cc1 (atropisomer, axis not shown) [Example 108, (S)-2-(tert-Butoxy)-2-((R)-4-(8-fluoro-5-methylchroman-6-yl)-6-methyl-1-(4-methylbenzoyl)indolin-5-yl)acetic acid] | 4 nM
Cc1cc2c(c(-c3cc(F)c4c(c3C)CCCO4)c1[C@H](OC(C)(C)C)C(=O)O)CCN2C(=O)c1cccc(F)c1Cl (atropisomer, axis not shown) [Example 49, (S)-2-(tert-Butoxy)-2-((R)-1-(2-chloro-3-fluorobenzoyl)-4-(8-fluoro-5-methylchroman-6-yl)-6-methylindolin-5-yl)acetic acid] | 2 nM
COc1ccc(C)cc1C(=O)N1c2cc(C)c([C@H](OC(C)(C)C)C(=O)O)c(-c3cc(F)c4c(c3C)CCCO4)c2CC1(C)C (atropisomer, axis not shown) [Example 205, (S)-2-(tert-Butoxy)-2-((R)-4-(8-Fluoro-5-methylchroman-6-yl)-1-(2-methoxy-5-methylbenzoyl)-2,2,6-trimethylindolin-5-yl)acetic acid] | 20 nM
Cc1ccc(-c2c3c(cc(C)c2[C@H](OC(C)(C)C)C(=O)O)N(C(=O)c2ccc(F)c(F)c2)CC3)cc1 [Example 42, (S)-2-(tert-Butoxy)-2-(1-(3,4-difluorobenzoyl)-6-methyl-4-(p-tolyl)indolin-5-yl)acetic acid] | 5 nM
COc1cc(C(=O)N2CCc3c2cc(C)c([C@H](OC(C)(C)C)C(=O)O)c3-c2cc(F)c3c(c2C)CCCO3)ccc1C [Example 71, (S)-2-(tert-Butoxy)-2-((R)-4-(8-fluoro-5-methylchroman-6-yl)-1-(3-methoxy-4-methylbenzoyl)-6-methylindolin-5-yl)acetic acid] | 4 nM
Cc1cc2c(c(-c3cc(F)c4c(c3C)CCCO4)c1[C@H](OC(C)(C)C)C(=O)O)CCN2C(=O)c1cc(F)cc(F)c1 (atropisomer, axis not shown) [Example 57, (S)-2-(tert-Butoxy)-2-((R)-1-(3,5-difluorobenzoyl)-4-(8-fluoro-5-methylchroman-6-yl)-6-methylindolin-5-yl)acetic acid] | 2 nM
Cc1cc2c(c(-c3cc(F)c4c(c3C)CCCO4)c1[C@H](OC(C)(C)C)C(=O)O)CCN2C(=O)c1cc(Cl)ccc1Cl (atropisomer, axis not shown) [Example 68, (S)-2-(tert-Butoxy)-2-((R)-1-(2,5-dichlorobenzoyl)-4-(8-fluoro-5-methylchroman-6-yl)-6-methylindolin-5-yl)acetic acid] | 13 nM
Cc1ccc(Cl)cc1C(=O)N1CCc2c1cc(C)c([C@H](OC(C)(C)C)C(=O)O)c2-c1cc(F)c2c(c1C)CCCO2 (atropisomer, axis not shown) [Example 149] | 5 nM
COc1ccc(C(=O)N2CCc3c2cc(C)c([C@H](OC(C)(C)C)C(=O)O)c3-c2cc(F)c3c(c2C)CCCO3)cn1 (atropisomer, axis not shown) [Example 170, (S)-2-(tert-Butoxy)-2-((R)-4-(8-fluoro-5-methylchroman-6-yl)-1-(6-methoxynicotinoyl)-6-methylindolin-5-yl)acetic acid] | 14 nM
COc1c(C(=O)N2CCc3c2cc(C)c([C@H](OC(C)(C)C)C(=O)O)c3-c2cc(F)c3c(c2C)CCCO3)ccc(F)c1F (atropisomer, axis not shown) [Example 113, (S)-2-(tert-Butoxy)-2-((R)-1-(3,4-difluoro-2-methoxybenzoyl)-4-(8-fluoro-5-methylchroman-6-yl)-6-methylindolin-5-yl)acetic acid] | 2 nM
Cc1ccc(-c2c3c(cc(C)c2[C@H](OC(C)(C)C)C(=O)O)N(C(=O)Cc2ccc(F)c(F)c2)CC3)cc1 [Example 34, (S)-2-(tert-Butoxy)-2-(1-(2-(3,4-difluorophenyl)acetyl)-6-methyl-4-(p-tolyl)indolin-5-yl)acetic acid] | 69 nM
Cc1cc2c(c(-c3ccc4c(c3C)CCCO4)c1[C@H](OC(C)(C)C)C(=O)O)CCN2C(=O)c1cc(F)cc(F)c1 (atropisomer, axis not shown) [Example 189, (S)-2-(tert-Butoxy)-2-((R)-1-(3,5-difluorobenzoyl)-6-methyl-4-(5-methylchroman-6-yl)indolin-5-yl)acetic acid] | 6 nM
COc1ccc(C(=O)N2CCc3c2cc(C)c([C@H](OC(C)(C)C)C(=O)O)c3-c2cc(F)c3c(c2C)CCCO3)c(F)c1 (atropisomer, axis not shown) [Example 85, (S)-2-(tert-Butoxy)-2-((R)-1-(2-fluoro-4-methoxybenzoyl)-4-(8-fluoro-5-methylchroman-6-yl)-6-methylindolin-5-yl)acetic acid] | 6 nM
COc1ccc(C(=O)N2CCc3c2cc(C)c([C@H](OC(C)(C)C)C(=O)O)c3-c2ccc3c(c2C)CCCO3)cc1F (atropisomer, axis not shown) [Example 187, (S)-2-(tert-Butoxy)-2-((R)-1-(3-fluoro-4-methoxybenzoyl)-6-methyl-4-(5-methylchroman-6-yl)indolin-5-yl)acetic acid] | 6 nM
COc1ccc(C(=O)N2CCc3c2cc(C)c([C@H](OC(C)(C)C)C(=O)O)c3-c2cc(F)c3c(c2C)CCCO3)cc1OC (atropisomer, axis not shown) [Example 86, (S)-2-(tert-Butoxy)-2-((R)-1-(3,4-dimethoxybenzoyl)-4-(8-fluoro-5-methylchroman-6-yl)-6-methylindolin-5-yl)acetic acid] | 5 nM
Cc1cc(F)ccc1C(=O)N1CCc2c1cc(C)c([C@H](OC(C)(C)C)C(=O)O)c2-c1cc(F)c2c(c1C)CCCO2 (atropisomer, axis not shown) [Example 62, (S)-2-(tert-Butoxy)-2-((R)-1-(4-fluoro-2-methylbenzoyl)-4-(8-fluoro-5-methylchroman-6-yl)-6-methylindolin-5-yl)acetic acid] | 6 nM
COc1cccc(OC)c1C(=O)N1CCc2c1cc(C)c([C@H](OC(C)(C)C)C(=O)O)c2-c1cc(F)c2c(c1C)CCCO2 (atropisomer, axis not shown) [Example 79, (S)-2-(tert-Butoxy)-2-((R)-1-(2,6-dimethoxybenzoyl)-4-(8-fluoro-5-methylchroman-6-yl)-6-methylindolin-5-yl)acetic acid] | 55 nM
Cc1cc2c(c(-c3cc(F)c4c(c3C)CCCO4)c1[C@H](OC(C)(C)C)C(=O)O)CCN2C(=O)c1ccc(Cl)c(F)c1 (atropisomer, axis not shown) [Example 56, (S)-2-(tert-Butoxy)-2-((R)-1-(4-chloro-3-fluorobenzoyl)-4-(8-fluoro-5-methylchroman-6-yl)-6-methylindolin-5-yl)acetic acid] | 2 nM
Cc1ccc(-c2c3c(cc(C)c2[C@H](OC(C)(C)C)C(=O)O)N(C(=O)c2ccc(F)cc2C)CC3)cc1 [Example 44, (S)-2-(tert-Butoxy)-2-(1-(4-fluoro-2-methylbenzoyl)-6-methyl-4-(p-tolyl)indolin-5-yl)acetic acid] | 6 nM
Cc1ccc(C(=O)N2CCc3c2cc(C)c([C@H](OC(C)(C)C)C(=O)O)c3-c2ccc3c(c2C)CCCO3)cn1 (atropisomer, axis not shown) [Example 191, (S)-2-(tert-Butoxy)-2-((R)-6-methyl-4-(5-methylchroman-6-yl)-1-(6-methylnicotinoyl)indolin-5-yl)acetic acid] | 868 nM
Cc1ccc(C(=O)N2CCc3c2cc(C)c([C@H](OC(C)(C)C)C(=O)O)c3-c2cc(F)c3c(c2C)CCCO3)cn1 (atropisomer, axis not shown) [Example 116, (S)-2-(tert-Butoxy)-2-((R)-4-(8-fluoro-5-methylchroman-6-yl)-6-methyl-1-(6-methylnicotinoyl)indolin-5-yl)acetic acid] | 11 nM
COc1c(F)cccc1Cn1ccc2c(-c3cc(F)c4c(c3C)CCCO4)c([C@H](OC(C)(C)C)C(=O)O)c(C)cc21 (atropisomer, axis not shown) [Example 200, (S)-2-(tert-Butoxy)-2-((R)-1-(3-Fluoro-2-methoxybenzyl)-4-(8-fluoro-5-methylchroman-6-yl)-6-methyl-1H-indol-5-yl)acetic acid] | 34 nM
Cc1cc2c(c(-c3cc(F)c4c(c3C)CCCO4)c1[C@H](OC(C)(C)C)C(=O)O)CCN2C(=O)c1ccc(F)c(Cl)c1 (atropisomer, axis not shown) [Example 119, (S)-2-(tert-Butoxy)-2-((R)-1-(3-chloro-4-fluorobenzoyl)-4-(8-fluoro-5-methylchroman-6-yl)-6-methylindolin-5-yl)acetic acid] | 3 nM
COc1ccc(C(=O)N2CCc3c2cc(C)c([C@H](OC(C)(C)C)C(=O)O)c3-c2cc(F)c3c(c2C)CCCO3)c(OC)c1 (atropisomer, axis not shown) [Example 88, (S)-2-(tert-Butoxy)-2-((R)-1-(2,4-dimethoxybenzoyl)-4-(8-fluoro-5-methylchroman-6-yl)-6-methylindolin-5-yl)acetic acid] | 5 nM
